Experimental data as given in the NIST ThermoML archive (doi:10.1021/acs.jced.9b00726).
Values joined by “and” are separate entries in the source; they are usually repeats but may differ in a detail not shown here. Equal entries are not always repeated. ± gives the expanded uncertainty stated by the source.

Assay: activity coefficient (dimensionless); of the first substance listed, at infinite dilution; xn = mol fraction of the nth substance listed
Details: 100 kPa, Liquid, inert gas stripping, x1 = 0

Row | Structure (SMILES) | activity coefficient (278.15 K) | activity coefficient (288.15 K) | activity coefficient (298.15 K) | activity coefficient (308.15 K) | activity coefficient (318.15 K) | activity coefficient (328.15 K) | activity coefficient (319.15 K) | activity coefficient (273.17 K) | activity coefficient (333.15 K) | activity coefficient (273.35 K) | activity coefficient (283.15 K) | activity coefficient (293.15 K) | activity coefficient (303.15 K) | activity coefficient (313.15 K) | activity coefficient (323.15 K)
1 | CC(=O)C(C)(C)C [3,3-dimethyl-2-butanone] + O | 217 ± 20 | 272 ± 25 | 321 ± 29 | 345 ± 32 | 370 ± 34 | 379 ± 35 | – | – | – | – | – | – | – | – | –
2 | CCC(C)C(C)=O (stereo unspecified) [3-methyl-2-pentanone] + O | 216 ± 47 | 268 ± 58 | 296 ± 48 | 332 ± 43 | 358 ± 46 | 380 ± 49 | – | – | – | – | – | – | – | – | –
3 | CC(=O)CC(C)C [4-methylpentan-2-one] + O | 239 ± 24 | 277 and 287 | 327 ± 30 | 370 ± 34 | 405 ± 37 | 410 ± 38 | – | – | – | – | – | – | – | – | –
4 | CCCC(C)=O [pentan-2-one] + O | 67.2 ± 6.7 | 78.7 ± 7 | 95.9 ± 8.6 | 107 ± 9.4 | 121 ± 11 | 129 ± 11 | – | 61.4 ± 6.1 | 130 ± 11 | – | – | – | – | – | –
5 | CCC(=O)CC [pentan-3-one] + O | – | 92.8 ± 8.3 | 114 and 112 | 129 ± 12 | 137 and 133 | – | – | – | 148 ± 13 | 67.9 ± 8.7 | 86.9 ± 8.7 | 101 ± 9 | 118 ± 11 | 130 ± 12 | 142 ± 13

The next lines start with the values.

Row | activity coefficient (278.15 K) | activity coefficient (288.15 K) | activity coefficient (298.15 K) | activity coefficient (308.15 K) | activity coefficient (318.15 K) | activity coefficient (328.15 K) | activity coefficient (319.15 K) | activity coefficient (273.17 K) | activity coefficient (333.15 K) | activity coefficient (273.35 K) | activity coefficient (283.15 K) | activity coefficient (293.15 K) | activity coefficient (303.15 K) | activity coefficient (313.15 K) | activity coefficient (323.15 K) | Structure (SMILES)
6 | 257 ± 33 | 331 ± 34 | 384 ± 35 | 422 ± 39 | 471 ± 61 | 456 ± 42 | – | – | – | – | – | – | – | – | – | CCCCC(C)=O [2-hexanone] + O
7 | 269 ± 58 | 329 ± 71 | 391 ± 51 | 442 ± 58 | 467 ± 61 | 491 ± 64 | – | – | – | – | – | – | – | – | – | CCC(=O)C(C)C [2-methyl-3-pentanone] + O
8 | 260 ± 34 | 340 ± 44 | 418 ± 43 | 458 ± 42 | – | 524 ± 48 | 515 ± 47 | – | – | – | – | – | – | – | – | CCCC(=O)CC [3-hexanone] + O
9 | 64.4 ± 8.2 | 72.9 ± 7.2 | 91 ± 8.1 | 102 ± 9.1 | 112 ± 9.8 | 119 ± 10 | – | – | – | – | – | – | – | – | – | CC(=O)C(C)C [3-methyl-2-butanone] + O
